# Earlier results, collected in patent US20110144117A1, “Pharmaceutical Dosage Form Containing Tetrahydrobiopterin” (OrPha Swiss GmbH, priority 2008, published 2011).
# Key:
# [1] = tested on: patients exhibiting mutations in the PAH gene; conditions: dietary supplementation, patients with mutations in the PAH gene (Kure et al.)
# [2] = in pure water
# [3] = tested on: patient with a dihydrobiopterin deficiency; conditions: single dose, patient with dihydrobiopterin deficiency (Niederwieser et al.)
Compound,phenylalanine blood plasma concentration [1],solubility [2] [g/100 g H2O],symptoms of hyperphenylalaninemia [3]
"CC(O)C(O)C1CNc2nc(N)[nH]c(=O)c2N1 (stereo not drawn) [tetrahydrobiopterin, 5,6,7,8-tetrahydro-biopterin]",reduces,,
C[C@H](O)C(=O)C1=Nc2c(nc(N)[nH]c2=O)NC1 [L-sepiapterin],,0.17,transiently disappeared
